Measured values: patent US20100204254A1, “Use of statins in the prevention and treatment of radiation injury and other disorders associated with reduced endothelial thrombomodulin” (The University of Arkansas for Medical Sciences, priority 2002, published 2010)

Assays:
[1] = test system: thrombomodulin mRNA (EA.hy926 endothelial cells); assay: Fluorogenic probe RT-PCR, steady-state thrombomodulin mRNA; assay type: cell-based, human; design: concentration dependence of thrombomodulin mRNA: dose or concentration left out as unconfirmed; conditions: for mRNA (thrombomodulin): FPP 10 μM, squalene 100 μM, GGPP 10 μM, atorvastatin 10 μM, intermediates 30 min before 24-hour atorvastatin, mean ± SEM, method gives % b-actin; for increase in thrombomodulin transcript: 10 mM atorvastatin
Method: (§1) Steady-state TM mRNA levels were measured using quantitative real-time RT-PCR (Dr. G. Shipley, Quantitative Genomics Core Laboratory, University of Texas Health Science Center, Houston, Tex.). Human thrombomodulin and b-actin fluorogenic oligonucleotide probes and primers were designed from Genbank sequences, using Primer Express software (Applied Biosystems, Foster City, Calif.) and synthesized by Biosource International (Camarillo, Calif.). Total RNA was extracted using TRIZOL Reagent (Invitrogen, Carlsbad, Calif.) and the RNA samples were treated with RNAse-free DNAse I (Promega, Madison, Wis.). cDNA was synthesized from total RNA in 10 μl total volume, consisting of 6 μl RT master mix (Invitrogen, Carlsbad, Calif.) and a 4-μl RNA sample (30 ng/μl), using a thermocycler (MJR, Waltham, Mass.) for 30 minutes at 50° C. followed by 72° C. for 10 min. Samples were measured in triplicate. An assay-specific sDNA standard spanning a 5-log range and appropriate controls were included. Forty ml of a PCR master mix was pipetted directly onto each well of the cDNA plate utilizing a Biomek 2000 robotic workstation (Beckman, Fullerton, Calif.), and amplified (95° C. for 1 min; 40 cycles of 95° C. for 12 sec, and 60° C. for 1 min) using the 7700 Sequence Detector (Applied Biosystems). The data were normalized to b-actin and presented as molecules of TM transcript/molecules of b-actin transcript×100 (% b-actin).

[2] = test system: endothelial cell thrombomodulin (EA.hy926 endothelial cells); assay: Thrombomodulin expression and activity overall (mRNA, protein, surface antigen, activity); assay type: cell-based, human; design: blocking of atorvastatin-induced thrombomodulin upregulation: dose or concentration left out as unconfirmed; conditions: for blocking of atorvastatin-induced thrombomodulin upregulation: 30 min pre-incubation
Method: as §1
(§2) Cells were harvested with trypsin/EDTA and lysed in lysis buffer (10 mM Tris, pH7.4, 150 mM NaCl, 1 mM EDTA, IGPAL CA630, 1 mM PMSF). Protein concentration was measured with the BCA assay (Pierce, Rockford, Ill.). Proteins (20 μg/per lane) were resolved by NuPAGE 4-10% Bis-tris gel electrophoresis (Invitrogen, Carlsbad, Calif.) and electrotransferred onto nitrocellulose membranes. Membranes were probed with primary mouse anti-human thrombomodulin antibody (American Diagnostica), followed by application of a secondary horseradish peroxidase-conjugated (HRP) anti-mouse IgG antibody (American Diagnostica). A mouse anti-human b-actin antibody (either from Sigma or Santa Cruz Biotechnology) was used for protein loading control. HRP signals were detected with an enhanced chemiluminescence (ECL) detection system (Amersham Pharmacia Biotech). Band densities were determined from X-Ray film using SigmaGel software (Jandel Scientific, San Rafael, Calif.).
(§3) Cells were examined for surface antigen expression by flow cytometry, using specific phycoerythrin-conjugated mouse antibodies against human TM (CD-141), a general endothelial cell marker (PECAM [CD-31]), and markers of stimulated endothelial cells (tissue factor [CD-142] and P-selectin [CD-62]) (BD Biosciences, San Diego, Calif.). Cell viability was assessed using 7-amino-actinomycin D (7-AAD). Phycoerythrin-conjugated mouse IgG was used as negative control. A total of 1×10^5 cells were used for each analysis. Cells were harvested, stained with appropriate phycoerythin-conjugated antibodies, fixed in 1% paraformaldehyde, and analysis was performed using a FACSCalibur Flow Cytometer (BD Immunocytometry System, San Jose, Calif.), QuantiBRITE-PE beads (BD Biosciences, San Diego, Calif.), and CELLQuest software. Antigen levels were expressed as antibody binding sites (ABS).
(§4) TM activity was assessed by measuring protein C activation in early confluent cells grown on 96-well plates. Cells were washed twice with PBS and incubated with […] protein C and 1 nM thrombin (60 min at 37° C., […] total volume) to generate activated protein C. Excess thrombin was quenched with hirudin ([…], 0.2 ATu/ml). The amount of activated protein C generated was measured by monitoring hydrolysis of chromogenic substrate S-2366 at 5-min intervals at 405 nm in a microplate reader (Bio-TEK Instruments, Winooski, Vt.). The results were expressed as mean OD slope values (DOD/Dt).
Statins, by inhibiting HMG-CoA reductase, reduce the formation of mevalonate (FIG. 7). […]

[3] = test system: cell surface thrombomodulin (EA.hy926 endothelial cells); assay: Flow cytometry, cell surface thrombomodulin antigen (CD-141); assay type: cell-based, human; conditions: for Antigen (cell surface thrombomodulin): same treatments, mean ± SEM, method gives antibody binding sites
Method: as §3

[4] = test system: thrombomodulin activity (EA.hy926 endothelial cells); assay: Protein C activation assay (thrombomodulin activity); assay type: cell-based, human; design: concentration dependence of cell surface thrombomodulin activity: dose or concentration left out as unconfirmed; conditions: for Activity (thrombomodulin, protein C activation): same treatments, mean ± SEM, method gives OD slope; for influence of enzyme inhibitors on thrombomodulin activity: data not shown; for effect of nitric oxide donors on thrombomodulin activity: 10 mM
Method: as §4
The functional activity of thrombomodulin was assessed by measuring the ability of the endothelial cells to activate protein C. All samples and reagents were diluted in APC assay diluent (20 mM Tri-HCl, pH7.4, 100 mM NaCl, 2.5 mM CaCl2, 0.5% BSA). Exponentially growing EA.hy 926 endothelial cells were seeded into 96 well plates in triplicate (2×10^4 per well). Cells were allowed to attach and grow overnight, and then washed twice with PBS and incubated for 60 min in 60 μl total volume at 37° C. with 0.5 μM protein C and 1 nM thrombin to generate activated protein C. Excess thrombin was blocked with a superstoichiometric amount of hirudin (20 μl, 0.16 U/μl, 570 nM). Generation of active protein C was determined by using a chromogenic substrate S-2366 and absorbance at 405 nm was measured by using a Vmax kinetic microplate reader.

[5] = test system: thrombomodulin protein (EA.hy926 endothelial cells); assay: Western blotting of thrombomodulin protein in cell lysates; assay type: cell-based, human; conditions: for Protein (thrombomodulin): same treatments, untreated control = 100, mean ± SEM
Method: as §2
Total thrombomodulin protein in cell lysates was measured by western blotting. EA.hy926 cells were grown to early (90%+) confluence. The cells were washed with 1×PBS twice and lysed by adding 1 ml lysis buffer (10 mM Tris, pH 7.4; 150 mM NaCl; 1 mM EDTA; 1% NP-40 or IGPAL CA630; 1 mM PMSF), and the lysate was collected into eppendorf tubes. Protein concentrations were measured with the BCA protein assay kit (Pierce). Protein aliquots of each sample were mixed with 4× loading buffer, placed in a boiling water bath for 5 min, and subsequently separated by NuPAGE 4-10% Bis-tris gel electrophoresis (Invitrogen Life Technologies). The proteins were transferred to a nitrocellulose membrane, probed with primary monoclonal mouse anti-human thrombomodulin antibody at 1:1000 and secondary anti-mouse IgG-HRP antibody at 1:2000 (American Diagnostica, Inc.) using standard procedures. The HRP signal was detected using ECL detection reagents (Amersham Life Sciences) and visualized on X-ray film.

[6] = test system: tissue factor (EA.hy926 endothelial cells); assay: Tissue factor (CD-142) expression after TNF-a exposure; assay type: cell-based, human; conditions: atorvastatin pre-treatment, data not shown
Method: as §3
TNF-a potently downregulates endothelial thrombomodulin, an effect that is pathophysiologically significant in sepsis and related disorders. Therefore, the effect of atorvastatin on TNF-a-induced downregulation of endothelial cell thrombomodulin was examined. Exposure of EA.hy926 cells to TNF-a (1-20 ng/ml for 24 hours) caused a dose-dependent increase in apoptosis (4-fold at 10 ng/ml) and tissue factor (2.5-fold) and decreased thrombomodulin by 75% (data not shown). […]

[7] = test system: thrombomodulin activity (human intestinal microvascular cells); assay: Protein C activation assay (thrombomodulin activity); assay type: cell-based
Method: as §4

[8] = test system: EA.hy926 endothelial cells; assay: Apoptosis after TNF-a exposure; assay type: cell-based, human; conditions: atorvastatin pre-treatment, data not shown
Method: TNF-a potently downregulates endothelial thrombomodulin, an effect that is pathophysiologically significant in sepsis and related disorders. Therefore, the effect of atorvastatin on TNF-a-induced downregulation of endothelial cell thrombomodulin was examined. Exposure of EA.hy926 cells to TNF-a (1-20 ng/ml for 24 hours) caused a dose-dependent increase in apoptosis (4-fold at 10 ng/ml) and tissue factor (2.5-fold) and decreased thrombomodulin by 75% (data not shown). EA.hy926 cells were pre-treated with atorvastatin (10 μM for 30 min) before exposure to TNF-a (1 or 10 ng/ml, 24 hours).

[9] = atorvastatin 10 μM for 30 min before TNF-a 1 or 10 ng/ml, 24 hours
[10] = 24 hours, atorvastatin 0.1-15 mM
[11] = statin before radiation, normal and irradiated cells, 24 hours after irradiation

## CC(C)=CCC/C(C)=C/CC/C(C)=C/COP(=O)(O)OP(=O)(O)O [FPP, farnesyl-pyrophosphate]
[1]
  mRNA (thrombomodulin): 8.2 ± 1.9
[2]
  blocking of atorvastatin-induced thrombomodulin upregulation: only partially blocked
[3]
  Antigen (cell surface thrombomodulin): 74.3 ± 1.1
[4]
  Activity (thrombomodulin, protein C activation): 3.6 ± 0.3
[5]
  Protein (thrombomodulin): 94 ± 9

## CC(C)=CCC/C(C)=C/CC/C(C)=C/CC/C(C)=C/COP(=O)(O)OP(=O)(O)O [GGPP, geranylgeranyl-pyrophosphate]
[1]
  mRNA (thrombomodulin): 5.4 ± 0.5
[2]
  blocking of atorvastatin-induced thrombomodulin upregulation: completely blocked
[3]
  Antigen (cell surface thrombomodulin): 66.6 ± 5
[4]
  Activity (thrombomodulin, protein C activation): 3.0 ± 0.7
[5]
  Protein (thrombomodulin): 124 ± 11

## COC(=O)[C@H](CC(C)C)NC(=O)c1ccc(NC[C@@H](N)CS)cc1-c1cccc2ccccc12 [GGTI-298]
[4]
  influence of enzyme inhibitors on thrombomodulin activity: increasing thrombomodulin activity

## CCCN(CCCN)N(O)N=O [PAPA-NONOate, 3-(2-Hydroxy-2-nitroso-1-propylhydrazino)-1-propanamine]
[4]
  effect of nitric oxide donors on thrombomodulin activity: mimicked the effect of atorvastatin on thrombomodulin activity

## CC1(C)N([O])C(c2ccccc2)=[N+]([O-])C1(C)C [PTIO, 2-Phenyl-4,4,5,5-tetramethylimidazoline-1-oxyl 3-oxide]
[4]; pre-incubation with 100 mM
  effect of NO scavenger on atorvastatin-induced increase in thrombomodulin activity: inhibited the atorvastatin-induced increase in thrombomodulin activity

## Cl.N=c1c[n+](N2CCOCC2)[n-]o1 [SIN-1, 3-Morpholinosydnonimine hydrochloride]
[4]
  effect of nitric oxide donors on thrombomodulin activity: mimicked the effect of atorvastatin on thrombomodulin activity

## CC(C)=CCC/C(C)=C/CC/C(C)=C/CC/C=C(\C)CC/C=C(\C)CCC=C(C)C [Squalene, squalene]
[1]
  mRNA (thrombomodulin): 5.9 ± 1.0
[2]
  blocking of atorvastatin-induced thrombomodulin upregulation: ineffective in blocking
[3]
  Antigen (cell surface thrombomodulin): 60.9 ± 1.9
[4]
  Activity (thrombomodulin, protein C activation): 2.4 ± 0.6
[5]
  Protein (thrombomodulin): 147 ± 29

## CC(C)c1c(C(=O)Nc2ccccc2)c(-c2ccccc2)c(-c2ccc(F)cc2)n1CC[C@@H](O)C[C@@H](O)CC(=O)O [atorvastatin]
[1]; 8 hours
  increase in thrombomodulin transcript: 3 fold
[1]; 24 hours
  increase in thrombomodulin transcript: > 10 fold
  concentration dependence of thrombomodulin mRNA: prominent dose-dependent increase
[1]
  mRNA (thrombomodulin): 71.7 ± 8.8
[6]
  effect on TNF-a-induced tissue factor expression: did not affect
[2]; [9]
  levels of thrombomodulin gene expression, protein and surface expression under TNF-a: significantly above those of untreated control cells
[3]; 10 mM statin, 24 hours
  increase in cell surface TM antigen: 2- to 3 fold
[3]; [10]
  concentration dependence of cell surface thrombomodulin antigen: prominent dose-dependent increase
[3]
  Antigen (cell surface thrombomodulin): 146.2 ± 1.9
[3]; [11]
  thrombomodulin antigen expression compared to control endothelial cells: significantly higher
[4]; 10 mM statin, 24 hours
  increase in TM activity (protein C activation): 2- to 3 fold
[4]; 25 Gy single dose radiation
  thrombomodulin activity in irradiated endothelial cells: essentially restored normal thrombomodulin activity
[4]; 24 hours, different concentrations
  concentration dependence of cell surface thrombomodulin activity: prominent dose-dependent increase
[4]; [9]
  effect on TNF-a-induced downregulation of thrombomodulin activity: completely counteracted
[4]
  Activity (thrombomodulin, protein C activation): 4.1 ± 0.3
[4]; [11]
  thrombomodulin activity compared to control endothelial cells: significantly higher
[7]
  endothelial thrombomodulin activity (protein C activation assay): significantly affected
[5]; 10 mM atorvastatin, 24 hours
  increase in thrombomodulin protein: 2- to 3 fold
[5]; [10]
  concentration dependence of cellular thrombomodulin protein: prominent dose-dependent increase
[5]; irradiated and non-irradiated cells
  thrombomodulin protein, Western blot of cell lysates: prominent increase in thrombomodulin protein
[5]
  Protein (thrombomodulin): 403 ± 70
[8]
  effect on TNF-a-induced apoptosis: did not affect

## CC(O)(CCO)CC(=O)O (centres unmarked) [mevalonate, Mevalonate]
[2]; 100 mM or 500 mM mevalonate 30 min prior to 24-hour
  inhibition of atorvastatin-induced thrombomodulin upregulation: dose-dependent inhibition
[2]; higher mevalonate concentration
  inhibition of atorvastatin-induced thrombomodulin upregulation: virtually complete inhibition

## C=C(CC[C@]12O[C@H](C(=O)O)[C@@](O)(C(=O)O)[C@](C(=O)O)(O1)[C@H](OC(=O)/C=C/[C@@H](C)C[C@@H](C)CC)[C@H]2O)[C@@H](OC(C)=O)[C@H](C)Cc1ccccc1 [zaragozic acid, zaragozic acid A]
[4]
  influence of enzyme inhibitors on thrombomodulin activity: no effect
